Measurements taken from patent US10456377B2, “Anesthetic comprising tetracaine and a vasoconstrictor for administration to a subject” (St. Renatus, LLC, priority 2009, dated 2019).
Counter-ions that a name gives are not always drawn.

System: maxillary dentition
Assay: Intranasal tetracaine HCl solution, anesthesia of the maxillary dentition by electric pulp testing (EPT)
Type: in vivo, human
Details: nasal spray, tetracaine doses between 4 and 16 mg, 80 subjects
Protocol: The purpose of this study was to identify an effective and safe dosage of an intranasally administered tetracaine hydrochloride solution for obtaining anesthesia of the maxillary dentition. Healthy human volunteers were administered a dose of tetracaine HCl delivered as a nasal spray using a BD Accuspray™ device. The administration of the local anesthetic varied by total dose, concentration, and volume, and it included single doses in a single nostril, split doses in the same nostril, and divided doses in both nostrils. Different techniques regarding direction of spray were also investigated.
The efficacy of tetracaine hydrochloride in 80 subjects was measured by monitoring pain levels via electric pulp testing (EPT). EPT testing was accomplished by passing a current through the tooth to be tested wherein the lowest level of current is a “0” and the highest level of current is an “80.” Subjects are exposed to an increasing amount of current (starting at 0 and ramping up to 80). If any pain was felt by the subject, the test was stopped and the EPT reading was recorded.
Subjects received tetracaine doses between 4 and 16 mg.

With `CCCCNc1ccc(C(=O)OCCN(C)C)cc1` [tetracaine HCl, 2-(dimethylamino)ethyl 4-(butylamino)benzoate] the “maxillary arch anesthesia, as indicated by an EPT score of 80” value was “did not result in maxillary arch anesthesia”.
